The structures appear in SMILES notation.

One may read the IC50 as the concentration that inhibits the measured activity by half. High values mean weaker potency, low ones greater potency.

For this experiment, the target named is T1, GPR84 (Homo sapiens, UniProt Q9NQS5).
T1 construct: expressed in transfected cells
Nature of the experiment: GPR84 [35S]GTPγS binding assay, HEPES buffer. It counts as biochemical. The conditions noted are these: 3,3′ di indolylmethane at EC80, membranes from stable cell line over expressing GPR84. The procedure: 1.1. Cell Based Assay: GTp-γ S Binding Assay.
The following assay can be used for determination of GPR84 activation.
The assay is performed in a 96 well plate where the following reagents are added. […] In a last step, 30 μL of a mixture consisting of membranes-GTPγS-SpA beads is added [mixture consists of 20 μg/well membranes derived from stable cell line over expressing GPR84 (membranes are pre-incubated with 0.1 μM GDP for 15 min at 4° C.), 0.1 nM [^35S]GTPγS (Perkin Elmer, NEG030) and 0.5 mg/well PVT-WGA SpA beads (Perkin Elmer, RPNQ0001)]. All components are diluted in assay buffer containing 20 mM HEPES pH 7.4; 5 mM MgCl2; 250 mM NaCl; 0.05% BSA; 75 ug/mL saponin Reactions are incubated for 90 min at room temperature followed by centrifugation at 2000 rpm during 15 min. Plates are read on a Topcount reader (Perkin Elmer) immediately after centrifugation (readout time, 1 min/well).

T1 sequence (Q9NQS5 whole entry): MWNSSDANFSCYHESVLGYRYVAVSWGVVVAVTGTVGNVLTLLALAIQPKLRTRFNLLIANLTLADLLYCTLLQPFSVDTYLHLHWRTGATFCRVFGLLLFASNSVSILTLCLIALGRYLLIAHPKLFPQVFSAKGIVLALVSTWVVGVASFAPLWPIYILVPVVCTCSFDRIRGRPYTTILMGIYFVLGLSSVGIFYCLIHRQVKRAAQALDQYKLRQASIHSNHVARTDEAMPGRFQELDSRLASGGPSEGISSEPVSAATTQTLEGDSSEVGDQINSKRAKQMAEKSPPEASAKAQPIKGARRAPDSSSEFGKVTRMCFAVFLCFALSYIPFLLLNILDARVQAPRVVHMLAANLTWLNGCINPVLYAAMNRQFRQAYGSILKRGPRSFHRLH

In the case of `CC(C)(Oc1ccc2c(c1)CCn1c-2cc(OCC2COc3ccccc3O2)nc1=O)C(=O)N1CCOCC1` (centres unmarked) [compound 50, 2-(2,3-dihydro-benzo[1,4]dioxin-2-ylmethoxy)-9-(1,1-dimethyl-2-morpholin-4-yl-2-oxo-ethoxy)-6,7-dihydro-pyrimido[6,1-a]isoquinolin-4-one], the half-maximal inhibitory concentration (IC50) lay within 500 to 1000 nM. Under `CC(C)N(C)C(=O)COc1ccc2c(c1)CCn1c-2cc(OCC2COc3ccccc3O2)nc1=O` (centres unmarked) [compound 67, 2-[2-(2,3-Dihydro-benzo[1,4]dioxin-2-ylmethoxy)-4-oxo-6,7-dihydro-4H-pyrimido[6,1-a]isoquinolin-9-yloxy]-N-isopropyl-N-methyl-acetamide] stands 0.01 to 100 nM; under `O=c1nc(OCC2COc3ncccc3O2)cc2n1CCc1cc(NCc3ncco3)ccc1-2` (centres unmarked) [compound 153, 2-(2,3-dihydro-[1,4]dioxino[2,3-b]pyridin-2-ylmethoxy)-9-[(oxazol-2-ylmethyl)-amino]-6,7-dihydro-pyrimido[6,1-a]isoquinolin-4-one], 0.01 to 100 nM; under `CC(C)CC(O)C#Cc1ccc2c(c1)CCn1c-2cc(OCC2COc3ncccc3O2)nc1=O` (centres unmarked) [compound 185, 2-(2,3-dihydro-[1,4]dioxino[2,3-b]pyridin-2-ylmethoxy)-9-(3-hydroxy-5-methyl-hex-1-ynyl)-6,7-dihydro-pyrimido[6,1-a]isoquinolin-4-one], 0.01 to 100 nM. The compound `O=c1nc(OCC2CCCO2)cc2n1CCc1cc(OCc3ccccn3)ccc1-2` (centres unmarked) [compound 14, 9-(pyridin-2-ylmethoxy)-2-(tetrahydro-furan-2-ylmethoxy)-6,7-dihydro-pyrimido[6,1-a]isoquinolin-4-one] showed an IC50 of 100 to 500 nM. As to `O=c1nc(OCC2COc3ncccc3O2)cc2n1CCc1cc(-c3ccc(N4CCOCC4)nc3)ccc1-2` (centres unmarked) [compound 165, 2-(2,3-dihydro-[1,4]dioxino[2,3-b]pyridin-2-ylmethoxy)-9-(6-morpholin-4-yl-pyridin-3-yl)-6,7-dihydro-pyrimido[6,1-a]isoquinolin-4-one], the IC50 lay within 0.01 to 100 nM. The result for `O=c1nc(OCC2COc3ccccc3O2)cc2n1CCc1cc(OCC3CCCO3)ccc1-2` (centres unmarked) [compound 54, 2-(2,3-dihydro-benzo[1,4]dioxin-2-ylmethoxy)-9-(tetrahydro-furan-2-ylmethoxy)-6,7-dihydro-pyrimido[6,1-a]isoquinolin-4-one] reads 0.01 to 100 nM; that for `O=c1nc(OCC2CCCO2)cc2n1CCc1cc(OCc3noc(-c4ccccc4)n3)ccc1-2` (centres unmarked) [compound 88, 9-(5-phenyl-[1,2,4]oxadiazol-3-ylmethoxy)-2-(tetrahydro-furan-2-ylmethoxy)-6,7-dihydro-pyrimido[6,1-a]isoquinolin-4-one], 0.01 to 100 nM; that for `Cn1cc(-c2ccc3c(c2)CCn2c-3cc(OCC3COc4ncccc4O3)nc2=O)cn1` (centres unmarked) [compound 149, 2-(2,3-dihydro-[1,4]dioxino[2,3-b]pyridin-2-ylmethoxy)-9-(1-methyl-1H-pyrazol-4-yl)-6,7-dihydro-pyrimido[6,1-a]isoquinolin-4-one], 0.01 to 100 nM. Under `O=c1nc(OCC2COc3ccccc3O2)cc2n1CCc1cc(OCCCN3CCCCC3)ccc1-2` (centres unmarked) [compound 81, 2-(2,3-dihydro-benzo[1,4]dioxin-2-ylmethoxy)-9-(3-piperidin-1-yl-propoxy)-6,7-dihydro-pyrimido[6,1-a]isoquinolin-4-one] stands 100 to 500 nM; under `O=c1nc(OCC2CCCO2)cc2n1CCc1cc(OCC3CC3)ccc1-2` (centres unmarked) [compound 11, 9-cyclopropylmethoxy-2-(tetrahydro-furan-2-ylmethoxy)-6,7-dihydro-pyrimido[6,1-a]isoquinolin-4-one], 100 to 500 nM; under `COc1ccccc1OCCOc1ccc2c(c1)CCn1c-2cc(OCC2CCCO2)nc1=O` (centres unmarked) [compound 40, 9-[2-(2-methoxy-phenoxy)-ethoxy]-2-(tetrahydro-furan-2-ylmethoxy)-6,7-dihydro-pyrimido[6,1-a]isoquinolin-4-one], 0.01 to 100 nM.

`CCOc1ccc(-c2ccc3c(c2)CCn2c-3cc(OCC3COc4ncccc4O3)nc2=O)cn1` (centres unmarked) [compound 164, 2-(2,3-dihydro-[1,4]dioxino[2,3-b]pyridin-2-ylmethoxy)-9-(6-ethoxy-pyridin-3-yl)-6,7-dihydro-pyrimido[6,1-a]isoquinolin-4-one] registered an IC50 of 0.01 to 100 nM. In turn, `O=c1nc(OCC2COc3ccccc3O2)cc2n1CCc1cc(OCC3COc4ccccc4O3)ccc1-2` (centres unmarked) [compound 30, 2,9-bis-(2,3-dihydro-benzo[1,4]dioxin-2-ylmethoxy)-6,7-dihydro-pyrimido[6,1-a]isoquinolin-4-one] came in with a half-inhibitory concentration (IC50) of 0.01 to 100 nM. Under `O=C(COc1ccc2c(c1)CCn1c-2cc(OCC2COc3ccccc3O2)nc1=O)Nc1ccccc1` (centres unmarked) [compound 68, 2-[2-(2,3-dihydro-benzo[1,4]dioxin-2-ylmethoxy)-4-oxo-6,7-dihydro-4H-pyrimido[6,1-a]isoquinolin-9-yloxy]-N-phenyl-acetamide] stands 0.01 to 100 nM; under `N#Cc1ccc(COc2ccc3c(c2)CCn2c-3cc(OCC3CCCO3)nc2=O)cc1` (centres unmarked) [compound 17, 4-[4-oxo-2-(tetrahydro-furan-2-ylmethoxy)-6,7-dihydro-4H-pyrimido[6,1-a]isoquinolin-9-yloxymethyl]-benzonitrile], 0.01 to 100 nM; under `N#Cc1ccccc1COc1ccc2c(c1)CCn1c-2cc(OCC2CCCO2)nc1=O` (centres unmarked) [compound 20, 2-[4-oxo-2-(tetrahydro-furan-2-ylmethoxy)-6,7-dihydro-4H-pyrimido[6,1-a]isoquinolin-9-yloxymethyl]-benzonitrile], 0.01 to 100 nM.

Regarding `O=C(NC1CCOCC1)c1ccc2c(c1)CCn1c-2cc(OCC2COc3ncccc3O2)nc1=O` (centres unmarked) [compound 195, 2-(2,3-dihydro-[1,4]dioxino[2,3-b]pyridin-2-ylmethoxy)-4-oxo-6,7-dihydro-4H-pyrimido[6,1-a]isoquinoline-9-carboxylic acid (tetrahydro-pyran-4-yl)-amide], the IC50 is 100 to 500 nM. The result for `N#Cc1cccc(-c2ccc3c(c2)CCn2c-3cc(OCC3CCCO3)nc2=O)c1` (centres unmarked) [compound 95, 3-[4-Oxo-2-(tetrahydro-furan-2-ylmethoxy)-6,7-dihydro-4H-pyrimido[6,1-a]isoquinolin-9-yl]-benzonitrile] reads 100 to 500 nM; that for `Cc1cc(COc2ccc3c(c2)CCn2c-3cc(OCC3COc4ncccc4O3)nc2=O)on1` (centres unmarked) [compound 159, 2-(2,3-dihydro-[1,4]dioxino[2,3-b]pyridin-2-ylmethoxy)-9-(3-methyl-isoxazol-5-ylmethoxy)-6,7-dihydro-pyrimido[6,1-a]isoquinolin-4-one], 0.01 to 100 nM. The result for `CCCCn1nnnc1COc1ccc2c(c1)CCn1c-2cc(OCC2COc3ccccc3O2)nc1=O` (centres unmarked) [compound 70, 9-(1-butyl-1H-tetrazol-5-ylmethoxy)-2-(2,3-dihydro-benzo[1,4]dioxin-2-ylmethoxy)-6,7-dihydro-pyrimido[6,1-a]isoquinolin-4-one] reads 0.01 to 100 nM; that for `COc1cccc(-c2ccc3c(c2)CCn2c-3cc(OCC3CCCO3)nc2=O)c1` (centres unmarked) [compound 100, 9-(3-methoxy-phenyl)-2-(tetrahydro-furan-2-ylmethoxy)-6,7-dihydro-pyrimido[6,1-a]isoquinolin-4-one], 100 to 500 nM; that for `C=CCOc1ccc2c(c1)CCn1c-2cc(OCC2COc3ncccc3O2)nc1=O` (centres unmarked) [compound 77, 9-allyloxy-2-(2,3-dihydro-[1,4]dioxino[2,3-b]pyridin-2-ylmethoxy)-6,7-dihydro-pyrimido[6,1-a]isoquinolin-4-one], 100 to 500 nM. Under `O=c1nc(OCC2CCCO2)cc2n1CCc1cc(OCc3ccccc3Cl)ccc1-2` (centres unmarked) [compound 23, 9-(2-chloro-benzyloxy)-2-(tetrahydro-furan-2-ylmethoxy)-6,7-dihydro-pyrimido[6,1-a]isoquinolin-4-one] stands 100 to 500 nM; under `COc1cccc(OCCOc2ccc3c(c2)CCn2c-3cc(OCC3CCCO3)nc2=O)c1` (centres unmarked) [compound 41, 9-[2-(3-methoxy-phenoxy)-ethoxy]-2-(tetrahydro-furan-2-ylmethoxy)-6,7-dihydro-pyrimido[6,1-a]isoquinolin-4-one], 0.01 to 100 nM; under `CCC(O)(C#Cc1ccc2c(c1)CCn1c-2cc(OCC2COc3ncccc3O2)nc1=O)CC` (centres unmarked) [compound 186, 2-(2,3-dihydro-[1,4]dioxino[2,3-b]pyridin-2-ylmethoxy)-9-(3-ethyl-3-hydroxy-pent-1-ynyl)-6,7-dihydro-pyrimido[6,1-a]isoquinolin-4-one], 0.01 to 100 nM. With `O=c1nc(OCC2CCCO2)cc2n1CCc1cc(OCc3cccc(-c4ccoc4)n3)ccc1-2` (centres unmarked) [compound 56, 9-(6-furan-3-yl-pyridin-2-ylmethoxy)-2-(tetrahydro-furan-2-ylmethoxy)-6,7-dihydro-pyrimido[6,1-a]isoquinolin-4-one], the 50% inhibitory concentration (IC50) lay within 0.01 to 100 nM. Regarding `O=c1nc(OCC2CCCO2)cc2n1CCc1cc(OCc3ccc4ccccc4c3)ccc1-2` (centres unmarked) [compound 37, 9-(naphthalen-2-ylmethoxy)-2-(tetrahydro-furan-2-ylmethoxy)-6,7-dihydro-pyrimido[6,1-a]isoquinolin-4-one], the IC50 is 0.01 to 100 nM. The result for `COc1ccc(-c2ccc3c(c2)CCn2c-3cc(OCC3CCCO3)nc2=O)cc1` (centres unmarked) [compound 101, 9-(4-methoxy-phenyl)-2-(tetrahydro-furan-2-ylmethoxy)-6,7-dihydro-pyrimido[6,1-a]isoquinolin-4-one] reads 100 to 500 nM.
